In brackets after ≈: the same amount, converted by molar mass. Where two headings read alike, the source gives them in different places.
Key:
Caco-2 cell permeability = format: in vitro ADME; conditions: human
Description: Caco-2 cells with transepithelial electrical resistance (TEER) (TEER = (resistance sample – resistance blank) × effective membrane area) = 450 ± 19 Ω cm^2were used for the experiment. Compounds were dissolved in the appropriate buffer (10 mM DMSO stock solutions were diluted with HBSS buffer to a final concentration of 10 μM testing compound and 0.4% DMSO, Lucifer Yellow was introduced in the apical side buffer to test the intactness of the monocell layer) and was applied to the apical or basolateral donor side for measuring A–B or B–A permeability (two replicates), respectively. The apical and basolateral plates were prewarmed to 37 °C before placing the apical plate onto the basolateral plate. After incubating at 37 °C for 90 min, the apical plate and basolateral plate were separated, and the donor or receiver samples were analyzed with UPLC-MS/MS.

[1] = Mouse hepatocyte stability; format: in vitro ADME; conditions: mouse hepatocytes
Description: Fifty microliters of prewarmed hepatocytes (2 × 10^6 cells/mL) in suspension media (Krebs–Henseleit buffer (Sigma-Aldrich) containing 5.6 g/L HEPES) was mixed with 50 μL of prewarmed compound dosing solution (2 μM in Krebs–Henseleit buffer with 1% DMSO). After incubating at 37 °C for 15, 30, 60, or 120 min, 100 μL of acetonitrile containing internal standard was added to quench the reaction. For 0 min incubation, acetonitrile was mixed with hepatocytes first before adding the compound solution. After quenching, the mixture was shaken at a vibrator for 10 min (600 rpm/min) and then sonicated for 2 min before centrifugation (5594g for 15 min). The supernatant was taken and diluted for LC-MS analysis.

[2] = Mouse liver microsome stability; format: in vitro ADME; conditions: liver microsomes
Description: Testing compound (1.5 μL) or reference compound (500 μM in 5% DMSO and 95% acetonitrile) was mixed with 18.75 μL of 20 mg/mL liver microsome (Corning) and 479.75 μL of potassium phosphate buffer (0.1 M potassium phosphate buffer, 1 mM EDTA, pH 7.4). The reaction was started by mixing 30 μL of the above mixture (prewarmed to 37 °C) with 15 μL of 6 mM NADPH stock solution (prewarmed to 37 °C). After incubating for 5, 15, 30, or 45 min, 135 μL of acetonitrile containing internal standard was added to stop the reaction. For 0 min, the compound and microsome mixture were mixed with acetonitrile first before adding NADPH. After quenching, the reaction mixture was centrifuged, and the supernatant was taken and diluted for LC-MS analysis.

[3] = Solubility in phosphate buffer and FeSSIF; format: physicochemical
Description: Eight microliters of reference or test compound stock solution (10 mM in DMSO) was added to 792 μL of 100 mM phosphate buffer (pH 7.4) or FeSSIF (pH 5.8). The resulting mixture was shaken for 1 h (1000 rpm) at room temperature and then centrifuged for 10 min (12 000 rpm) to remove the undissolved particles. The supernatant was collected and diluted 10 times and 100 times separately with 100 mM phosphate buffer or FeSSIF. Five microliters of the supernatant samples (no diluted, 10 times diluted, 100 times diluted) were mixed with 95 μL of acetonitrile (containing internal standard) separately before injecting into LC-MS/MS for analysis.

`CNc1nc(Nc2ccc(C(=O)N3CCN(C[C@H]4CC[C@H](CSC(C)(C)[C@H](NC(=O)C5(F)CC5)C(=O)N5C[C@H](O)CC5C(=O)NCc5ccc(-c6scnc6C)cc5)CC4)CC3)cc2OC)ncc1Cl` (stereo partly drawn) [XL01126, (2S,4R)-1-((R)-3-((((1R,4R)-4-((4-(4-((5-Chloro-4-(methylamino)pyrimidin-2-yl)amino)-3-methoxybenzoyl)piperazin-1-yl)methyl)cyclohexyl)methyl)thio)-2-(1-fluorocyclopropane-1-carboxamido)-3-methylbutanoyl)-4-hydroxy-N-(4-(4-methylthiazol-5-yl)benzyl)pyrrolidine-2-carboxamide] gave a Papp A→B at 90 min, 10 µM (Caco-2 cell permeability; A–B) of less than 0.74 ×10⁻⁶ cm/s, a Papp B→A at 90 min, 10 µM (Caco-2 cell permeability; B–A) of less than 1.43 ×10⁻⁶ cm/s and a CLint scaled at 1 µM [1] of 26 mL/min/kg. It also gave a half-life at 1 µM ([1]; read-out: T1/2 in mouse hepatocytes) of 5.24 h, a CLint scaled at 1 µM ([2]; pH 7.4) of 1490 mL/min/kg and a half-life at 1 µM ([2]; pH 7.4, read-out: T1/2 in mouse liver microsome) of 3.65 min. For the same compound, the solubility at 1 h ([3]; 100 mM phosphate buffer, pH 7.4, read-out: solubilities in PBS (pH 7.4)) was 0.55 µM (≈ 0.561 µg/mL) and the solubility at 1 h ([3]; FeSSIF, pH 5.8, read-out: solubility in FeSSIF (pH 5.8)) was 26.1 µM (≈ 26.6 µg/mL).
